OCC1(O)OC[C@@H](O)[C@@H](O)[C@H]1O (some centres undefined)
solubility (mole fraction)
Settings	283.15 K	288.15 K	293.15 K	298.15 K	303.15 K	308.15 K	313.15 K	318.15 K	323.15 K
in 2-butanone	0.000516	0.000587	0.000946	0.00144	0.00198	0.00264	0.0033	0.00464	0.00552
in acetone	0.000606	0.000752	0.00104	0.00158	0.00219	0.00299	0.00376	0.0049	–
in acetonitrile	0.000226	0.000283	0.000367	0.00047	0.000627	0.000861	0.00109	0.00139	0.00176
in ethanol	0.00369	0.00446	0.00588	0.00746	0.00899	0.0116	0.0147	0.018	0.0222
in ethyl acetate	0.00077	0.000993	0.00128	0.00173	0.00217	0.00257	0.00327	0.00379	0.00449
in ethyl formate	0.000243	0.000356	0.000493	0.000697	0.00109	0.00151	0.00193	0.00275	0.00346
in isopropanol	0.00147	0.00193	0.00254	0.00368	0.00507	0.00673	0.00893	0.0112	0.0143
in methanol	0.0162	0.0178	0.0212	0.0273	0.0356	0.0512	0.0705	0.0895	0.116
in methyl acetate	0.000227	0.000298	0.000389	0.000619	0.000851	0.00105	0.00139	0.00187	0.00231
in n-butanol	0.00111	0.00125	0.0018	0.0024	0.00329	0.00456	0.00579	0.00747	0.00952
in n-butyl acetate	0.000243	0.000359	0.000443	0.000593	0.000796	0.001	0.00131	0.00165	0.002
in n-hexanol	0.000659	0.000835	0.000961	0.00143	0.00216	0.00301	0.004	0.00509	0.00652
in n-pentanol	0.00133	0.00134	0.0017	0.00202	0.00269	0.00356	0.00448	0.00561	0.00721
in n-propanol	0.0015	0.00191	0.00234	0.00335	0.00446	0.00567	0.00751	0.00956	0.0121
in sec-butanol	0.001	0.00178	0.00238	0.00324	0.0045	0.00617	0.0079	0.0105	0.0135
